According to patent US8906825B2, “Herbicidal compositions comprising 4-amino-3-chloro-5-fluoro-6-(4-chloro-2-fluoro-3-methoxyphenyl) pyridine-2-carboxylic acid or a derivative thereof and triazolopyrimidine sulfonamides” (Dow AgroSciences LLC, priority 2012, dated 2014):

What was measured:
Format in all cases: in vivo
[1] = system: ECHCG (Echinochloa crusgalli (L.) Beauv., barnyardgrass); assay: Postemergence foliar-applied herbicidal mixtures, direct seeded rice, greenhouse (Example I)
[2] = system: ECHCG (Echinochloa crusgalli (L.) Beauv., barnyardgrass); assay: In-water applied herbicidal mixtures, transplanted paddy rice, greenhouse (Example II)
[3] = system: FIMMI (Fimbristylis miliacea (L.) Vahl, globe fringerush); assay: as above; conditions: Compound A Benzyl Ester 8 gae/ha

Row | SMILES | Visual Weed Control (%) - 27 DAA ECHCG Obs ([1]; Penoxsulam 4.38 gai/ha) [%] | Visual Weed Control (%) - 27 DAA ECHCG Obs ([1]; Penoxsulam 8.75 gai/ha) [%] | Visual Weed Control (%) - 21 DAA ECHCG Obs ([2]; Compound A Benzyl Ester 4.38 gae/ha) [%] | Visual Weed Control (%) - 21 DAA ECHCG Obs ([2]; Compound A Benzyl Ester 8.75 gae/ha) [%] | Visual Weed Control (%) - 21 DAA FIMMI Obs [3] [%]
1 | COc1cnc(OC)n2nc(NS(=O)(=O)c3c(OCC(F)F)cccc3C(F)(F)F)nc12 [Penoxsulam, 2-(2,2-difluoroethoxy)-N-(5,8-dimethoxy[1,2,4]triazolo[1,5-c]pyrimidin-2-yl)-6-(trifluoromethyl)benzenesulfonamide, reference compound] | 0 | 30 |  |  | 
2 | COc1c(Cl)ccc(-c2nc(C(=O)OCc3ccccc3)c(Cl)c(N)c2F)c1F [Compound A Benzyl Ester, benzyl ester of 4-amino-3-chloro-5-fluoro-6-(4-chloro-2-fluoro-3-methoxy-phenyl)pyridine-2-carboxylic acid] |  |  | 20 | 85 | 30
